The target of this experiment is T1, MDMX (Homo sapiens, UniProt O15151).
T1 construct: gene MDM4
T1 sequence (O15151 1-120): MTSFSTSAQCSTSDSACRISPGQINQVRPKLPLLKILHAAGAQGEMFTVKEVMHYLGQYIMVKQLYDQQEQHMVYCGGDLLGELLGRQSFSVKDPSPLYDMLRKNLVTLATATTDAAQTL
The experiment is described as follows: ITC; MALDI-TOF MS of covalent adducts, no reducing agent. The experiment is classed as binding.

The source of these data is paper PMC6198280, “Chemical Instability and Promiscuity of Arylmethylidenepyrazolinone-Based MDMX Inhibitors” (ACS Chemical Biology, 2018).

One may read the Kd as the concentration at which binding is half-saturated.

In the case of `CCOc1cc(/C=C2\C(=O)N(c3ccccc3)N=C2C)cc(Cl)c1OCC(=O)OC` [compound 1, SJ-172550], the dissociation constant Kd is more than 13 µM.
